From patent publication US11590139B2, “Substituted aminopurine compounds, compositions thereof, and methods of treatment therewith” (Signal Pharmaceuticals, LLC, priority 2014, dated 2023)

Test system: Lox-IMVI melanoma cell line
Experiment: Lox-IMVI anti-proliferative assay (growth inhibition, Cell Titer-Glo)
Format: cell-based, human
Settings: Homo sapiens; IC50 activity level in the cell-based Lox-IMVI anti-proliferative assay; read-out: Activity
Outline: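 Lox-IMVI cells in RPMI+10% FBS exposed 72 h at 37 °C to 10-point, 3-fold dilutions (0.5 nM–10 μM; 0.2% DMSO final), in duplicate. Viability by Cell Titer-Glo luminescence, with a t0 cell-number reading; data as % of DMSO control; IC50 from a four-parameter logistic fit.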

Compound	IC50 [nM]
NC(=O)[C@H]1CC[C@@H](n2c(Nc3c(F)cc(Cl)cc3F)nc3cnc(N[C@@H]4CCCOC4)nc32)CC1 [Example 188, (1S,4s)-4-(8-(4-chloro-2,6-difluorophenylamino)-2-((R)-tetrahydro-2H-pyran-3-ylamino)-9H-purin-9-yl)cyclohexanecarboxamide]	> 1000
NC(=O)[C@H]1CC[C@@H](n2c(Nc3c(Cl)cc(F)cc3Cl)nc3cnc(N[C@@H]4CCCOC4)nc32)CC1 [Example 189, (1S,4s)-4-(8-(2,6-dichloro-4-fluorophenylamino)-2-((R)-tetrahydro-2H-pyran-3-ylamino)-9H-purin-9-yl)cyclohexanecarboxamide]	> 1000
NC(=O)[C@H]1CC[C@@H](n2c(Nc3c(F)cc(Cl)cc3Cl)nc3cnc(N[C@@H]4CCCOC4)nc32)CC1 [Example 190, (1S,4s)-4-(8-(2,4-dichloro-6-fluorophenylamino)-2-((R)-tetrahydro-2H-pyran-3-ylamino)-9H-purin-9-yl)cyclohexanecarboxamide]	> 1000
NC(=O)[C@H]1CC[C@@H](n2c(Nc3ccc(Cl)cc3Cl)nc3cnc(NC4COCC4O)nc32)CC1 (some centres unmarked) [Example 191, (1s,4s)-4-(8-(2,4-dichlorophenylamino)-2-(4-hydroxytetrahydrofuran-3-ylamino)-9H-purin-9-yl)cyclohexanecarboxamide]	> 1000
NC(=O)[C@H]1CC[C@@H](n2c(Nc3cccc(Cl)c3F)nc3cnc(NC4COCC4O)nc32)CC1 (some centres unmarked) [Example 192, (1s,4s)-4-(8-(3-chloro-2-fluorophenylamino)-2-(4-hydroxytetrahydrofuran-3-ylamino)-9H-purin-9-yl)cyclohexanecarboxamide]	> 1000
NC(=O)[C@H]1CC[C@@H](n2c(Nc3c(Cl)cc(F)cc3Cl)nc3cnc(NC4CC5(COC5)C4)nc32)CC1 [Example 193, (1s,4s)-4-(2-(2-oxaspiro[3.3]heptan-6-ylamino)-8-(2,6-dichloro-4-fluorophenylamino)-9H-purin-9-yl)cyclohexanecarboxamide]	> 1000
NC(=O)[C@H]1CC[C@@H](n2c(Nc3ccc(Cl)c(F)c3F)nc3cnc(NC4CC5(COC5)C4)nc32)CC1 [Example 194, (1s,4s)-4-(2-(2-oxaspiro[3.3]heptan-6-ylamino)-8-(4-chloro-2,3-difluorophenylamino)-9H-purin-9-yl)cyclohexanecarboxamide]	> 1000
NC(=O)[C@H]1CC[C@@H](n2c(Nc3c(F)cc(Cl)cc3Cl)nc3cnc(NC4CC5(COC5)C4)nc32)CC1 [Example 195, (1s,4s)-4-(2-(2-oxaspiro[3.3]heptan-6-ylamino)-8-(2,4-dichloro-6-fluorophenylamino)-9H-purin-9-yl)cyclohexanecarboxamide]	250 to 500
NC(=O)[C@H]1CC[C@@H](n2c(Nc3c(F)ccc(Cl)c3F)nc3cnc(NC4CC5(COC5)C4)nc32)CC1 [Example 196, (1s,4s)-4-(2-(2-oxaspiro[3.3]heptan-6-ylamino)-8-(3-chloro-2,6-difluorophenylamino)-9H-purin-9-yl)cyclohexanecarboxamide]	> 1000
CC(=O)N1CCC(Nc2ncc3nc(Nc4c(Cl)cc(Cl)cc4Cl)n([C@H]4CC[C@@H](C(N)=O)CC4)c3n2)CC1 [Example 197, (1s,4s)-4-(2-(1-acetylpiperidin-4-ylamino)-8-(2,4,6-trichlorophenylamino)-9H-purin-9-yl)cyclohexanecarboxamide]	> 1000
CC(=O)N1CCC(Nc2ncc3nc(Nc4c(F)cc(Cl)cc4Cl)n([C@H]4CC[C@@H](C(N)=O)CC4)c3n2)CC1 [Example 198, (1s,4s)-4-(2-(1-acetylpiperidin-4-ylamino)-8-(2,4-dichloro-6-fluorophenylamino)-9H-purin-9-yl)cyclohexanecarboxamide]	> 1000
NC(=O)[C@H]1CC[C@@H](n2c(Nc3c(F)cc(F)cc3Cl)nc3cnc(N[C@@H]4CCOC4)nc32)CC1 [Example 199, (1S,4s)-4-(8-(2-chloro-4,6-difluorophenylamino)-2-((R)-tetrahydrofuran-3-ylamino)-9H-purin-9-yl)cyclohexanecarboxamide]	500 to 1000
NC(=O)[C@H]1CC[C@@H](n2c(Nc3c(F)cc(Cl)cc3F)nc3cnc(NC4CCC(F)(F)CC4)nc32)CC1 [Example 200, (1s,4s)-4-(8-(4-chloro-2,6-difluorophenylamino)-2-(4,4-difluorocyclohexylamino)-9H-purin-9-yl)cyclohexanecarboxamide]	250 to 500
NC(=O)[C@H]1CC[C@@H](n2c(Nc3c(Cl)cc(F)cc3Cl)nc3cnc(NC4CCC(F)(F)CC4)nc32)CC1 [Example 201, (1s,4s)-4-(8-(2,6-dichloro-4-fluorophenylamino)-2-(4,4-difluorocyclohexylamino)-9H-purin-9-yl)cyclohexanecarboxamide]	250 to 500
NC(=O)[C@H]1CC[C@@H](n2c(Nc3c(Cl)cc(F)cc3Cl)nc3cnc(N[C@H]4CCCOC4)nc32)CC1 [Example 202, (1R,4s)-4-(8-(2,6-dichloro-4-fluorophenylamino)-2-((S)-tetrahydro-2H-pyran-3-ylamino)-9H-purin-9-yl)cyclohexanecarboxamide]	> 1000
NC(=O)[C@H]1CC[C@@H](n2c(Nc3c(F)cc(Cl)cc3F)nc3cnc(N[C@H]4CCCOC4)nc32)CC1 [Example 203, (1R,4s)-4-(8-(4-chloro-2,6-difluorophenylamino)-2-((S)-tetrahydro-2H-pyran-3-ylamino)-9H-purin-9-yl)cyclohexanecarboxamide]	> 1000
NC(=O)[C@H]1CC[C@@H](n2c(Nc3c(F)cc(Cl)cc3Cl)nc3cnc(N[C@H]4CCCOC4)nc32)CC1 [Example 204, (1R,4s)-4-(8-(2,4-dichloro-6-fluorophenylamino)-2-((S)-tetrahydro-2H-pyran-3-ylamino)-9H-purin-9-yl)cyclohexanecarboxamide]	> 1000
NC(=O)[C@H]1CC[C@@H](n2c(Nc3c(Cl)cc(Cl)cc3Cl)nc3cnc(NCC4(CO)CC4)nc32)CC1 [Example 205, (1s,4s)-4-(2-((1-(hydroxymethyl)cyclopropyl)methylami-no)-8-(2,4,6-trichlorophenylamino)-9H-purin-9-yl)cyclohexanecarboxamide]	> 1000
NC(=O)[C@H]1CC[C@@H](n2c(Nc3c(F)cc(Cl)cc3Cl)nc3cnc(NCC4(CO)CC4)nc32)CC1 [Example 206, (1s,4s)-4-(8-(2,4-dichloro-6-fluorophenylamino)-2-((1-(hydroxymethyl)cyclopropyl)methylami-no)-9H-purin-9-yl)cyclohexanecarboxamide]	> 1000
NC(=O)[C@H]1CC[C@@H](n2c(Nc3c(F)cc(F)cc3F)nc3cnc(N[C@@H]4CC[C@@H](O)C4)nc32)CC1 [Example 207, (1S,4s)-4-(2-((1R,3R)-3-hydroxycyclopentylamino)-8-(2,4,6-trifluorophenylamino)-9H-purin-9-yl)cyclohexanecarboxamide]	> 1000
NC(=O)[C@H]1CC[C@@H](n2c(Nc3c(F)cccc3Cl)nc3cnc(N[C@@H]4CC[C@@H](O)C4)nc32)CC1 [Example 208, (1S,4s)-4-(8-(2-chloro-6-fluorophenylamino)-2-((1R,3R)-3-hydroxycyclopentylamino)-9H-purin-9-yl)cyclohexanecarboxamide]	> 1000
NC(=O)[C@H]1CC[C@@H](n2c(Nc3c(F)cccc3F)nc3cnc(N[C@@H]4CC[C@@H](O)C4)nc32)CC1 [Example 209, (1S,4s)-4-(8-(2,6-difluorophenylamino)-2-((1R,3R)-3-hydroxycyclopentylamino)-9H-purin-9-yl)cyclohexanecarboxamide]	> 1000
NC(=O)[C@H]1CC[C@@H](n2c(Nc3c(F)cc(F)cc3Cl)nc3cnc(N[C@@H]4CC[C@@H](O)C4)nc32)CC1 [Example 210, (1S,4s)-4-(8-(2-chloro-4,6-difluorophenylamino)-2-((1R,3R)-3-hydroxycyclopentylamino)-9H-purin-9-yl)cyclohexanecarboxamide]	> 1000
NC(=O)[C@H]1CC[C@@H](n2c(Nc3c(Cl)cccc3Cl)nc3cnc(N[C@@H]4CC[C@@H](O)C4)nc32)CC1 [Example 211, (1S,4s)-4-(8-(2,6-dichlorophenylamino)-2-((1R,3R)-3-hydroxycyclopentylamino)-9H-purin-9-yl)cyclohexanecarboxamide]	> 1000
NC(=O)[C@H]1CC[C@@H](n2c(Nc3c(Cl)cc(Cl)cc3Cl)nc3cnc(N[C@@H]4CC[C@@H](O)C4)nc32)CC1 [Example 212, (1S,4s)-4-(2-((1R,3R)-3-hydroxycyclopentylamino)-8-(2,4,6-trichlorophenylamino)-9H-purin-9-yl)cyclohexanecarboxamide]	250 to 500
NC(=O)[C@H]1CC[C@@H](n2c(Nc3c(F)cc(Cl)cc3Cl)nc3cnc(N[C@@H]4CC[C@@H](O)C4)nc32)CC1 [Example 213, (1S,4s)-4-(8-(2,4-dichloro-6-fluorophenylamino)-2-((1R,3R)-3-hydroxycyclopentylamino)-9H-purin-9-yl)cyclohexanecarboxamide]	250 to 500
NC(=O)[C@H]1CC[C@@H](n2c(Nc3c(Cl)cc(F)cc3Cl)nc3cnc(N[C@@H]4CC[C@@H](O)C4)nc32)CC1 [Example 214, (1S,4s)-4-(8-(2,6-dichloro-4-fluorophenylamino)-2-((1R,3R)-3-hydroxycyclopentylamino)-9H-purin-9-yl)cyclohexanecarboxamide]	> 1000
NC(=O)[C@H]1CC[C@@H](n2c(Nc3c(F)cc(Cl)cc3F)nc3cnc(N[C@@H]4CC[C@@H](O)C4)nc32)CC1 [Example 215, (1S,4s)-4-(8-(4-chloro-2,6-difluorophenylamino)-2-((1R,3R)-3-hydroxycyclopentylamino)-9H-purin-9-yl)cyclohexanecarboxamide]	250 to 500
NC(=O)[C@H]1CC[C@@H](n2c(Nc3ccc(Cl)c(F)c3F)nc3cnc(N[C@@H]4CC[C@@H](O)C4)nc32)CC1 [Example 216, (1S,4s)-4-(8-(4-chloro-2,3-difluorophenylamino)-2-((1R,3R)-3-hydroxycyclopentylamino)-9H-purin-9-yl)cyclohexanecarboxamide]	> 1000
